Laboratory results published in patent publication US6281354A, “Analogs of duocarmycin and cc-1065” (The Scripps Research Institute, priority 1999, dated 2001).
Like-named read-outs stand apart in the source and are kept apart here.

Columns and labels:
w794 DNA [1] = assay: Relative rates of DNA alkylation for (+)-1, 53 and 54 at the w794 5'-AATTA site; assay type: biochemical, SV40; settings: for concentration dependence of the rate of DNA alkylation: 10^-4 -10^-6 M
Description: Modifications in the Trimethoxyindole Subunit: Role of the Methoxy Substituents. DNA alkylation by the natural enantiomers of 53-56 were compared with that of 1 in w794 DNA.
Relative Rates of DNA Alkylation for (+)-1, 53, and 54. Following the procedure detailed above, Eppendorf tubes containing 5' end-labeled w794 DNA (9 μL) in TE buffer (pH 7.5) were treated with (+)-duocarmnycin SA, 53, or 54 (1 μL, 10^-5 M in DMSO). […] The solutions were mixed and incubated at 25° C. for 1, 3, 6, 12, 24, 48, and 72 h, respectively. Subsequent isolation of the alkylated DNA by EtOH precipitation, resuspension in TE buffer (10 μL, pH 7.5), thermolysis (30 min, 100° C.), concurrent PAGE, and autoradiography were conducted as detailed above. The relative rate for the alkylation at the 5'-AATTA site was derived from the slopes of the plots of percent integrated optical density (IOD) of the high affinity alkylation site cleavage bands versus time.

w794 DNA [2] = assay: DNA alkylation (thermal strand cleavage, PAGE) within w794 DNA; assay type: biochemical, SV40
[3] = test system: duplex DNA (w794, w836, c988, c820, c1346); assay type: biochemical, SV40; settings: for sequence preference at the alkylation site: consensus alkylation sequence; for alkylation of individual three-base sequences: 5'-TTA or 5'-ATA
w836 DNA = assay: DNA alkylation sites and relative rates within the six-base A sequence (5'-AAAAAA) of w836 DNA; assay type: biochemical, SV40; settings: for alkylated adenines within six-base A-rich sequence of w836 DNA / AT-rich binding site covered in w836 DNA: 5'-AAAAAA
w794 DNA [4] = settings: pH 7.5, earlier studies; cited from earlier work
[5] = In vitro cytotoxic activity; settings: for cytotoxic potency, effect of terminal N^2 substituent (18, 23, 24 compared): natural and unnatural enantiomers
[6] = natural enantiomers, 25° C., 24 h
[7] = 5×10^-6 M agent (so in the source), 25° C., w836 5'-AAAAAA

COC(=O)c1cc2c([nH]1)C(=O)C=C1N(C(=O)c3cc4ccccc4[nH]3)CC3CC123 (single isomer, unassigned) [compound 53, Methyl 2-[(Indol-2-yl)carbonyl]-1,2,8,8a-tetrahydrocyclopropa[c]pyrrolo[3,2-e]indol-4-one-6-carboxylate]
concentration dependence of the rate of DNA alkylation (w794 DNA [1]): independent of agent concentration | less effective at DNA alkylation than duocarmycin SA (w794 DNA [2]; (+) enantiomer): 6-10 × | less efficient DNA alkylation than 1 (w794 DNA [2]; [6]): 20 ×

COC(=O)c1cc2c([nH]1)C(=O)C=C1N(C(=O)c3cc4cc(OC)ccc4[nH]3)CC3CC123 (single isomer, unassigned) [compound 54, Methyl 2-[(5-Methoxyindol-2-yl)carbonyl]-1,2,8,8a-tetrahydrocyclopropa[c]pyrrolo[3,2-e]indol-4-one-6-carboxylate]
concentration dependence of the rate of DNA alkylation (w794 DNA [1]): independent of agent concentration | relative rate of DNA alkylation κrel versus 53 (w794 DNA [1]; 10^-5 M, 25° C., 1-72 h, 5'-d(AATTA)): 18-33 | DNA alkylation compared with duocarmycin SA (1), in words (w794 DNA [2]; [6]): essentially indistinguishable from 1

COC(=O)c1cc2c([nH]1)C(=O)C=C1N(C(=O)c3cc4ccc(OC)cc4[nH]3)CC3CC123 (single isomer, unassigned) [compound 55, Methyl 2-[(6-Methoxyindol-2-yl)carbonyl]-1,2,8,8a-tetrahydrocyclopropa[c]-pyrrolo[3,2-e]indol-4-one-6-carboxylate]
less efficient DNA alkylation than 1 (w794 DNA [2]; [6]): 5-10 ×

COC(=O)c1cc2c([nH]1)C(=O)C=C1N(C(=O)c3cc4cccc(OC)c4[nH]3)CC3CC123 (single isomer, unassigned) [compound 56, Methyl 2-[(7-Methoxyindol-2-yl)carbonyl]-1,2,8,8a-tetrahydrocyclopropa[c]pyrrolo[3,2-e]indol-4-one-6-carboxylate]
less efficient DNA alkylation than 1 (w794 DNA [2]; [6]): 5-10 ×

COC(=O)c1cc2c3c(ccc2[nH]1)N(C(=O)c1cc2c([nH]1)C(=O)C=C1N(C(=O)c4cc5c6c(ccc5[nH]4)N(C(N)=O)CC6)CC4CC124)CC3 (single isomer, unassigned) [ent-(-)-30]
sequence preference at the alkylation site [3]: 5'-AAA>5'-AAT≥5'TAA>5 TAT | alkylated adenines within six-base A-rich sequence of w836 DNA (w836 DNA): alkylated those central to the sequence

COC(=O)c1cc2c([nH]1)C(=O)C=C1N(C(=O)c3cc4c5c(ccc4[nH]3)N(C(=O)c3cc4c6c(ccc4[nH]3)N(C(N)=O)CC6)CC5)CC3CC123 (single isomer, unassigned) [ent-(-)-DSA-CDPI2]
high affinity alkylation site in w794 DNA (w794 DNA [2]): 5'-AATTT | high affinity alkylation site in w794 DNA (w794 DNA [2]; listed as (-)-DSA-CDPI2): 5'-AATTT | AT-rich adenine N3 alkylation selectivity (size of site) [3]: 5 base-pair | AT-rich binding site covered in w836 DNA (w836 DNA): 5 base-pair | alkylated adenines within six-base A-rich sequence of w836 DNA (w836 DNA): 5' terminal adenines | time required to approach the same level of DNA alkylation as (+)-DSA-CDPI2 (w836 DNA; 5×10^6 M agent (so in the source), 25° C., w836 5'-AAAAAA): 6 h

COC(=O)c1cc2c3c(ccc2[nH]1)N(C(=O)c1cc2c([nH]1)C(=O)C=C1N(C(=O)c4cc5c6c(ccc5[nH]4)N(C(N)=O)CC6)CC4CC124)CC3 (single isomer, unassigned; (+)) [(+)-30]
AT-rich adenine N3 alkylation selectivity (size of site) [3]: 5 base-pair | sequence preference at the alkylation site [3]: 5'-AAA>5'-AAT≥5'TAA>5 TAT | alkylated adenines within six-base A-rich sequence of w836 DNA (w836 DNA): alkylated those central to the sequence

COC(=O)c1cc2c([nH]1)C(=O)C=C1N(C(=O)c3cc4c5c(ccc4[nH]3)N(C(N)=O)CC5)CC3CC123 (single isomer, unassigned; (+)) [(+)-DSA-CDPI1]
alkylation of the minor w794 site (5'-CAAAG) (w794 DNA [2]): prominently alkylates | concentration required at minor site (5'-CAAAG) relative to major 5'-AATTA site (w794 DNA [2]): 10 x

COC(=O)c1cc2c([nH]1)C(=O)C=C1N(C(=O)c3cc4c5c(ccc4[nH]3)N(C(=O)c3cc4c6c(ccc4[nH]3)N(C(N)=O)CC6)CC5)CC3CC123 (single isomer, unassigned; (+)) [(+)-DSA-CDPI2]
alkylation of the minor w794 site (5'-CAAAG) (w794 DNA [2]): failed to alkylate | high affinity alkylation site in w794 DNA (w794 DNA [2]): 5'-AATTA | AT-rich adenine N3 alkylation selectivity (size of site) [3]: 5 base-pair | alkylation of individual three-base sequences [3]: unusually effective alkylation of 5'-TTA | sequence preference at the alkylation site [3]: 5'-AAA>5'-TTA>5'-TAA≥5'-ATA | AT-rich binding site covered in w836 DNA (w836 DNA): 5 base-pair | alkylated adenines within six-base A-rich sequence of w836 DNA (w836 DNA): only the 3' adenines | time after which extensive DNA alkylation is exhibited (w836 DNA; [7]): 1 to 5 min

COC(=O)c1cc2c3c(ccc2[nH]1)N(C(=O)c1cc2c4c(ccc2[nH]1)N(C(=O)c1cc2c([nH]1)C(=O)C=C1N(C(=O)OC(C)(C)C)C[C@H]5C[C@]125)CC4)CC3 [(+)-CDPI2 -DSA]
alkylation at the natural-enantiomer high affinity site (5'-AATTA) (w794 DNA [2]): without detectable alkylation | high affinity alkylation site in w794 DNA (w794 DNA [2]): 5'-AATTT | AT-rich adenine N3 alkylation selectivity (size of site) [3]: 5 base-pair | sequence preference at the alkylation site [3]: 5'-AAA>5'-AAT≥5'-TAA>5'-TAT

COc1cc2cc(C(=O)N3CC4CC45C3=CC(=O)c3ccccc35)[nH]c2c(OC)c1OC (stereo not shown) [CBI-TMI]
relative rate of DNA alkylation at w794 high affinity site (w794 DNA [4]): 1.0 ×

COc1ccc2c(c1)C13CC1CN(C(=O)c1cc4cc(OC)c(OC)c(OC)c4[nH]1)C3=CC2=O (stereo not shown) [MCBI-TMI]
relative rate of DNA alkylation at w794 high affinity site (w794 DNA [4]): 1.9 ×

COC(=O)c1cc2c3c(ccc2[nH]1)N(C(=O)c1cc2c4c(ccc2[nH]1)N(C(=O)c1cc2c([nH]1)C(=O)C=C1N(C(=O)OC(C)(C)C)CC5CC125)CC4)CC3 (stereo not shown) [compound 20, 6-[7-[Methyl 1,2-Dihydro-(3H-pyrrolo[3,2-e]indole-3-yl)carbonyl-7-carboxylate]1,2-dihydro-(3H-pyrrolo[3,2-e]indole-3-yl)carbonyl]-2-((tert-butyloxy)carbonyl)-1,2,8,8a-tetrahydrocyclopropa[c]pyrrolo[3,2-e]indol-4-one]
more potent cytotoxicity than simple derivatives N--BOC-DSA (4) and N--Ac-DSA ([5]; natural enantiomers): less than 10 × | cytotoxic potency of the two enantiomers compared ([5]; natural versus unnatural enantiomer): nearly equipotent | alkylated adenines within six-base A-rich sequence of w836 DNA (w836 DNA): the natural enantiomer of 20 alkylated the same sites as ent-(-)-DSA-CDPI2 while the unnatural enantiomer of 20 alkylated the same sites as the natural enantiomer (+)-DSA-CDPI2 | time required to reach a detectable and diminished level of DNA alkylation (w836 DNA; 5×10^-6 M agent (so in the source), 25° C., both enantiomers): 72 h

COC(=O)c1cc2cc(NC(=O)c3cc4cc(NC(=O)c5cc6c([nH]5)C(=O)C=C5N(C(C)=O)CC7CC567)ccc4[nH]3)ccc2[nH]1 (stereo not shown) [compound 23, N-{2-[N-(2-Methoxycarbonyl-1H-indol-5-yl)]carbamoyl-1H-indol-5-yl}-2-acetyl-1,2,8,8a-tetrahydrocyclopropa[c]pyrrolo[3,2-e]indole4-one-6-carboxamide]
cytotoxic potency, effect of terminal N^2 substituent (18, 23, 24 compared) [5]: essentially indistinguishable | cytotoxic potency compared with simple derivatives N--BOC-DSA (4) and N--Ac-DSA ([5]; natural enantiomers): essentially indistinguishable | comparison of DNA alkylation selectivity [3]: no differences in their DNA alkylation selectivity | less efficient at alkylating DNA than DSA-indole2 [3]: ca. 100 × | more efficient DNA alkylation than the BOC derivative 18 [3]: 2-5 × | slower DNA alkylation than DSA-indole2 [3]: ca. 1000 × | unnatural enantiomer less effective at DNA alkylation than natural enantiomer [3]: approximately 10 ×

COC(=O)c1cc2cc(NC(=O)c3cc4cc(NC(=O)c5cc6c([nH]5)C(=O)C=C5NCC7CC567)ccc4[nH]3)ccc2[nH]1 (stereo not shown) [compound 24]
cytotoxic potency, effect of terminal N^2 substituent (18, 23, 24 compared) [5]: noticeably less potent | DNA alkylation efficiency relative to 18 [3]: about an order of magnitude less efficient | comparison of DNA alkylation selectivity [3]: no differences in their DNA alkylation selectivity | less efficient at alkylating DNA than DSA-indole2 [3]: ca. 100 × | slower DNA alkylation than DSA-indole2 [3]: ca. 1000 × | unnatural enantiomer less effective at DNA alkylation than natural enantiomer [3]: approximately 10 ×

COC(=O)c1cc2c3c(ccc2[nH]1)N(C(=O)c1cc2c([nH]1)C(=O)C=C1N(C(=O)c4cc5c6c(ccc5[nH]4)N(C(N)=O)CC6)CC4CC124)CC3 (stereo not shown) [compound 30]
cytotoxic potency compared with typical agents [5]: essentially equipotent with the typical agents | AT-rich adenine N3 alkylation selectivity (size of site) [3]: 5 base-pair | time after which extensive DNA alkylation is exhibited (w836 DNA; [7]): 1 to 5 min

COc1c(O)c2c(c3cc(C(=O)N4CCc5c4c(O)c(OC)c4[nH]c(C(=O)N6CC7CC78C6=CC(=O)c6[nH]cc(C)c68)cc54)[nH]c13)CCN2C(N)=O (stereo not drawn) [ent-(-)-CC-1065, reference compound]
high affinity alkylation site in w794 DNA (w794 DNA [2]): 5'-AATTT | AT-rich adenine N3 alkylation selectivity (size of site) [3]: 5 base-pair

COC(=O)c1cc2c3c(ccc2[nH]1)N(C(=O)c1cc2c4c(ccc2[nH]1)N(C(=O)c1cc2c([nH]1)C(=O)C=C1N(C(=O)OC(C)(C)C)C[C@@H]5C[C@@]125)CC4)CC3 [ent-(-)-CDPI2 -DSA]
high affinity alkylation site in w794 DNA (w794 DNA [2]): 5'-AATTA | AT-rich adenine N3 alkylation selectivity (size of site) [3]: 5 base-pair | alkylation of individual three-base sequences [3]: under represented alkylation of 5'-ATA | sequence preference at the alkylation site [3]: 5'-AAA>5'-TAA>5'-TTA>5'-ATA
